In patent US12703712B2, “Indenonaphthopyrans having trialkylsilyl and ethylenically unsaturated groups” (Transitions Optical, Ltd., priority 2021, dated 2026):

Test: Solubility evaluation in polymerizable polysiloxane-containing formulation
Format: physicochemical
Settings: 0.06 g photochromic compound in 1.50 g polymerizable polysiloxane-containing formulation of Table 1; stirred 24 hours at room temperature; visual observation
Procedure: A polymerizable polysiloxane-containing formulation was prepared by mixing together the ingredients and in the amounts as tabulated in the following Table 1.
The photochromic compounds of Comparative Examples CE-1 and CE-2, and Examples 4 and 5, prepared as described in Part-1, were each added to a polymerizable polysiloxane-containing formulation according to Table 1, to form Polymerizable Photochromic Compositions A, B, C, and D, as summarized in the following Table 2. The Polymerizable Photochromic Compositions were each stirred for 24 hours at room temperature after which the solubility of the photochromic compounds was determined by visual observation.

For `C=C(C)C(=O)OCCOCCOCCOc1ccc(C2(c3ccccc3)C=Cc3c4c(c5cc(N6CCCCC6)c(OC)cc5c3O2)-c2ccc(-c3ccccc3)cc2C4(CCC)CCC)cc1` (stereo not shown) [CE-1], which “Observed Solubility” value is on record?
The value was “poor”.

For `C=C(C)C(=O)OCCOC(=O)CCC(=O)N1CCN(c2ccc(C3(c4ccccc4)C=Cc4c5c(c6cc(N7CCCCC7)c(OC)cc6c4O3)-c3ccccc3C5(C)C)cc2)CC1` (stereo not shown) [CE-2], which “Observed Solubility” value is on record?
Its value is “poor”.

With `C=C(C)C(=O)OCCOCCOCCOc1ccc(C2(c3ccccc3)C=Cc3c4c(c5cc(N6CCCCC6)c(OC)cc5c3O2)-c2ccc(-c3ccc([Si](C)(C)C)cc3)cc2C4(CCC)CCC)cc1` (stereo not shown) [Example 4, 6-methoxy-7-(piperidin-1-yl)-11-(4-trimethylsilylphenyl)-13,13-dipropyl-3-phenyl-3-(2-(2-(1-methacroylethoxy)ethoxy)ethoxy)phenyl-3H,13H-indeno[2′,3′: 3,4]naphtho[1,2-b]pyran] as the compound, how does the “Observed Solubility” value read?
The value was “excellent”.

For `C=C(C)C(=O)OCCOC(=O)CCC(=O)N1CCN(c2ccc(C3(c4ccccc4)C=Cc4c5c(c6cc(N7CCCCC7)c(OC)cc6c4O3)-c3ccc([Si](C)(C)C)cc3C5(C)C)cc2)CC1` (stereo not shown) [Example 5], which “Observed Solubility” value is on record?
The value was “excellent”.
